In one data set the target is mTOR/GbL/Raptor (mTORC1) (Homo sapiens, UniProt P42345). The data set can be described thus: mTOR/GbL/Raptor (mTORC1) ELISA assay. In kind it is biochemical. Conditions: mTORC1, 10 μM ATP, 4E-BP1 substrate. Here is the method: mTOR/GbL/Raptor (mTORC1) ELISA Assay
The measurement of mTORC1 enzyme activity was performed in an ELISA assay format following the phosphorylation of 4E-BP1 protein. All experiments were performed in the 384-well format. Generally, 0.5 μL DMSO containing varying concentrations of the test compound was mixed with 15 μL enzyme solution. Kinase reactions were initiated with the addition of 15 μL of substrates-containing solution. The assay conditions were as follows; 0.2 nM mTORC1, 10 μM ATP and 50 nM NHis-tagged 4E-BP1 in 20 mM Hepes, pH 7.2, 1 mM DTT, 50 mM NaCl, 10 mM MnCl2, 0.02 mg/mL BSA, 0.01% CHAPS, 50 mM ([…]. Following an incubation of 120 minutes at ambient temperature, 20 μL of the reaction volume was transferred to a Ni-Chelate-coated 384-well plate. The binding step of the 4E-BP1 protein proceeded for 60 minutes, followed by washing 4 times each with 50 μL of Tris-buffered saline solution (TBS). Anti-phospho-4E-BP1 rabbit-IgG (20 μL, 1:5000) in 5% BSA-TBST (0.2% Tween-20 in TBS) was added and further incubated for 60 minutes. Incubation with a secondary HRP-tagged anti-IgG was similarly performed after washing off the primary antibody (4 washes of 50 μL). Following the final wash step with TBST, 20 μL of SuperSignal ELISA Femto (Pierce Biotechnology) was added and the luminescence measured using an EnVision plate reader.
(In general: In an ELISA, binding on a coated surface is turned into a signal by an enzyme label.)

Data set [1] is described as follows: Mouse microsomal oxidation assay. In kind it is in vitro ADME. Conditions: 15 μM compound, 0.5 mg/mL microsomal protein, 1 mM NADPH, 37° C., 30 min; +/−10% equivalent to little or no oxidation. Here is the method: Mouse Microsomal Oxidation Assay
Microsomal oxidation of test compounds in the presence of mouse liver microsomal fractions was conducted in 96-well microtiter plates. Liver microsomal preparations were purchased from BD Gentest (Cat #452701). Test compounds were incubated in duplicate at 37° C. for 30 min in the presence of liver microsomes and NADPH. Reaction mixtures (75 μL) contained a final concentration of 15 μM test compound, 0.15% DMSO, 0.5 mg/mL microsomal protein and 1 mM NADPH in 100 mM potassium phosphate, pH 7.4 buffer. Control incubations contained the full complement of enzyme and substrate but no NADPH added. All test-sets included reference CYP450 substrates to verify assay performance. Reactions were terminated by the addition of 150 μL acetonitrile containing 0.1% formic acid. The concentration of the test compound remaining was determined by LC/MS/MS analysis on Sciex API-3000 instrument. The % oxidation is determined by the change in peak integration for the test compound (+/−NADPH) relative to the peak integration of internal standard injected with the sample: % oxidation=[((Int. peakcompound, no NADPH/Int. peakstandard)−(Int. peakcompound, NADPH/Int. peakstandard))[…]] Chromatographic separation of analytes was achieved using a Phenomenex Synergi Hydro-RP column (Torrance, Calif.) and a mobile phase consisting of 0.1% formic acid in acetonitrile and 0.1% formic acid in water. A linear gradient from 2-98% acetonitrile was used to elute compounds from the HPLC column. The typical variation (ie, precision) observed in the measurements for a given sample (e.g., multiple injections of the same sample) is ca. 10%, and thus experimental values of +/−10% can be considered to be equivalent to little or no oxidation.

The next data set concerns the target PI3Kβ (Homo sapiens, UniProt P42338). The data set can be described thus: PI3K luciferase-coupled chemiluminescence assay (PI3Kβ in place of PI3Kα). The format is biochemical. As to conditions: second value of cell 'P13K-α, β'. Here is the method: (§1) PI3K Luciferase-Coupled Chemiluminescence Assay Protocol
(§2) PI3Kα activity is measured as the percent of ATP consumed following the kinase reaction using luciferase-luciferin-coupled chemiluminescence. Reactions were conducted in 384-well white, medium binding microtiter plates (Greiner). Kinase reactions were initiated by combining test compounds, ATP, substrate (PIP2), and kinase in a 20 μL volume in a buffer solution. The standard PI3Kalpha assay buffer is composed 50 mM Tris, pH 7.5, 1 mM EGTA, 10 mM MgCl2, 1 mM DTT and 0.03% CHAPS. The standard assay concentrations for enzyme, ATP, and substrate are 1.5 nM, 1 μM, and 10 μM, respectively. The reaction mixture was incubated at ambient temperature for approximately 2 h. Following the kinase reaction, a 10 μL aliquot of luciferase-luciferin mix (Promega Kinase-Glo) was added and the chemiluminescence signal measured using a Victor2 plate reader (Perkin Elmer). Total ATP consumption was limited to 40-60% and IC50 values of control compounds correlate well with literature references. PI3Kα can be replaced with PI3Kβ, PI3Kδ, or PI3Kγ to determine the compound's activity for the other isoforms of PI3K.

A further data set concerns MCF-7 cells. Put plainly: MCF-7 2 day BrdU cell proliferation assay. The format is cell-based, human. As to conditions: MCF-7, 48 hr. Here is the method: (§3) MCF-7 and PC-3 2 Day BrdU Cell Proliferation Assay
(§4) MCF-7 (ATCC) and PC-3 (ATCC) cells were seeded onto 96-well plates (Corning, #3904) in their growth medium, DMEM (Cellgro, #10-014-CV)+10% heat-inactivated FBS (Invitrogen)+1% Pen/Strep (Cellgro, #30-002-CI)+1% NEAA (Cellgro, #25-025-CI) at a seeding density of 15000 and 8000 cells/well, respectively. Cells were incubated overnight at 37° C., 5% CO2. Cells were then treated the next day with a serial dilution of compound in its growth medium (containing a final concentration of 0.3% DMSO). Triplicate wells were used for each compound concentration. The control wells received 0.3% DMSO in growth medium. The plates were incubated at 37° C., 5% CO2 for an additional 48 hr. Cells were labeled with BrdU (Roche, #10280879001, 20 μM) for 2-4 hr and then fixed with 70% EtOH+0.1 M NaOH for 30 min at RT. Anti-BrdU-Peroxidase (Roche, #11585860001, 1/2000 in PBS+1% BSA) conjugate was added to the cells, after which the plates were washed 3 times with 1×PBS. Chemiluminescent substrate solution (Pierce, #3707A/B) was added, and the plates were read for luminescence using the Wallac Victor plate reader for 0.1 sec. IC50 values were determined based on cell proliferation with compound treatment compared to the 0.3% DMSO vehicle control.

The target of the next data set is PI3Kα (Homo sapiens, UniProt P42336). Put plainly: PI3K luciferase-coupled chemiluminescence assay (PI3Kα). The format is biochemical. As to conditions: first value of cell 'P13K-α, β'; 1 μM ATP, 10 μM PIP2. Here is the method:
as §1, §2

For a further data set, the system named is PC-3 cells. Put plainly: PC-3 2 day BrdU cell proliferation assay. The format is cell-based, human. Here is the method: as §3, §4
Data set [2] deals with pS6 (S240/S244) PC-3 cell line. The data set can be described thus: pS6 (S240/244) ELISA assay in PC-3 cells. As to conditions: 3 h compound, ratio pS6 to total S6. In kind it is cell-based, human. Here is the method:
PC-3 and MCF-7 cells (both from ATCC) were seeded at 8×10^3 cells per well in 96-well plates (Corning, 3904) in DMEM (Cellgro) containing 10% FBS (Cellgro), 1% NEAA (Cellgro) and 1% penicillin-streptomycin (Cellgro). Two plates were prepared for cell fixation ELISA, one for pS6 (S240/244) and one for total S6. Cells were incubated at 37° C., 5% CO2 for 48 h, and the growth medium was replaced with serum-free DMEM. Serial dilutions of the test compound in 0.3% DMSO (vehicle) were added to the cells and incubated for 3 h. To fix the cells, medium was removed and 100 μL/well of 4% formaldehyde (Sigma Aldrich, F8775) in TBS (20 mM Tris, 500 mM NaCl) was added to each well at RT for 30 min. Cells were washed 3 times with 200 μL TBS containing 0.1% Tween20 (Bio-Rad, catalog #170-6351) (TBST), and quenched with 100 μL 0.6% H2O2 (VWR International, catalog #VW3742-1) in TBST for 30 min at RT. Plates were washed 3 times with 200 μL TBST and blocked with 100 μL 5% BSA (Jackson ImmunoResearch, 001-000-173) in TBST for 1 h at RT. Anti-pS6 (S240/244) antibody (Cell Signaling Technology, 2215) and anti-total-S6 antibody (Cell Signaling Technology, 2217) were diluted 1/500 in 5% BSA in TBST, and 50 μL of either primary antibody solution was added to one plate to detect pS6 or total S6. After incubation overnight at 4° C., plates were washed 4 times with 200 μL TBST. Goat anti-rabbit secondary antibody (Jackson ImmunoResearch, catalog #111-035-003) was diluted at 1/15000 in 5% BSA in TBST. 100 μL of antibody solution was added to each well and incubated for 1 h at RT. Plates were washed 3 times with 200 μL TBST and 2 times with 200 μL TBS. Chemiluminescent substrate (Super Signal Elisa Femto Chemiluminescent Substrate; Pierce, 37075) was prepared at RT. One-hundred μL of chemiluminescent substrate per well was added and then the plate was shaken for 1 min. Luminescence was read immediately on a Wallac plate reader. IC50 values were determined based on the ratio of pS6 to total S6 signal for compound treated wells, normalized to the DMSO-treated control wells.

PI3Kα, sequence (P42336 whole entry): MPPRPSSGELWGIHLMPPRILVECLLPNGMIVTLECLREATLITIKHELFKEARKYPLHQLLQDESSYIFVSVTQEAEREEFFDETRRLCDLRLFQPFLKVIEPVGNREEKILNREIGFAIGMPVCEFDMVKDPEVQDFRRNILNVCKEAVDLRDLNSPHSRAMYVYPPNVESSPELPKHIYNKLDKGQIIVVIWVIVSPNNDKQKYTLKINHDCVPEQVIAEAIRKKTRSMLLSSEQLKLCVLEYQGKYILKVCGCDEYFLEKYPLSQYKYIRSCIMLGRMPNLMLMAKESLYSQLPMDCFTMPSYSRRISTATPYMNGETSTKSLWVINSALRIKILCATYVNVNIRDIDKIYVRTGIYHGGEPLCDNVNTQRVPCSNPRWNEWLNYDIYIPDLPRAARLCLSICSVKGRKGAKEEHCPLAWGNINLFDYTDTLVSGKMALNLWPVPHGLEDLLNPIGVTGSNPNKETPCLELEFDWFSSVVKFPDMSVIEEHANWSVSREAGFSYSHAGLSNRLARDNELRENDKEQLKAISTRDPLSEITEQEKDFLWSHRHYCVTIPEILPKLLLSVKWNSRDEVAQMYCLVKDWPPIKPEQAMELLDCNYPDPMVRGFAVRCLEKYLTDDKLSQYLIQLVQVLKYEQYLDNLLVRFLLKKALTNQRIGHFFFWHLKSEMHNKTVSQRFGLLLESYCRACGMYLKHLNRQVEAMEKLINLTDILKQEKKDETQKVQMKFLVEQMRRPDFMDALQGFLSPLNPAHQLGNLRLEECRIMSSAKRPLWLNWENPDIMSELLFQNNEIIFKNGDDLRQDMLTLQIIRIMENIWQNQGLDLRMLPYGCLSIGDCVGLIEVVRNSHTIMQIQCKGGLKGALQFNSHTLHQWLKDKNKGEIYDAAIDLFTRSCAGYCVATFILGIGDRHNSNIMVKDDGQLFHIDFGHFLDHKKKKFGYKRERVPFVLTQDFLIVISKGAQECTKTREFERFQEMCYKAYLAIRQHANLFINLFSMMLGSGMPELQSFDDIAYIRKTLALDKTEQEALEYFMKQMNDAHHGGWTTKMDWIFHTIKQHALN
PI3Kα, sequence (P27986 whole entry partner): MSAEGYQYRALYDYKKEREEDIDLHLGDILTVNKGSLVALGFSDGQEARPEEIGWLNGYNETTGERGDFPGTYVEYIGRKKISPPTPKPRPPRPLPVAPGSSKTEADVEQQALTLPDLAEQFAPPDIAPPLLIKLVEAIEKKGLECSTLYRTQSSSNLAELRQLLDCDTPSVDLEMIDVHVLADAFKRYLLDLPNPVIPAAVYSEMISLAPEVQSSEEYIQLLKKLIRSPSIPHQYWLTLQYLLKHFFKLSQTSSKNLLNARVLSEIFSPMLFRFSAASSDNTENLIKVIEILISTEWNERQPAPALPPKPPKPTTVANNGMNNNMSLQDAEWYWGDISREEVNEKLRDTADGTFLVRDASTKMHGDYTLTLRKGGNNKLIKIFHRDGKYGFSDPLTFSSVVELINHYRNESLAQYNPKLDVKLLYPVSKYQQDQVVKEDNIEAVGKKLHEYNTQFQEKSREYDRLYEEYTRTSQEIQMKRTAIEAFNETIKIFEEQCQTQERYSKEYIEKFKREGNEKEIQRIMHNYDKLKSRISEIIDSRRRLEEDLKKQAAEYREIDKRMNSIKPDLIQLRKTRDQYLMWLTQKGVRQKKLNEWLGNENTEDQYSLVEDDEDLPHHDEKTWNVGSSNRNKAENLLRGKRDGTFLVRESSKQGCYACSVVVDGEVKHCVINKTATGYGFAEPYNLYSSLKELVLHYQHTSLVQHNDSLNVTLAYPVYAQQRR
PI3Kβ, sequence (P42338 whole entry, species assumed): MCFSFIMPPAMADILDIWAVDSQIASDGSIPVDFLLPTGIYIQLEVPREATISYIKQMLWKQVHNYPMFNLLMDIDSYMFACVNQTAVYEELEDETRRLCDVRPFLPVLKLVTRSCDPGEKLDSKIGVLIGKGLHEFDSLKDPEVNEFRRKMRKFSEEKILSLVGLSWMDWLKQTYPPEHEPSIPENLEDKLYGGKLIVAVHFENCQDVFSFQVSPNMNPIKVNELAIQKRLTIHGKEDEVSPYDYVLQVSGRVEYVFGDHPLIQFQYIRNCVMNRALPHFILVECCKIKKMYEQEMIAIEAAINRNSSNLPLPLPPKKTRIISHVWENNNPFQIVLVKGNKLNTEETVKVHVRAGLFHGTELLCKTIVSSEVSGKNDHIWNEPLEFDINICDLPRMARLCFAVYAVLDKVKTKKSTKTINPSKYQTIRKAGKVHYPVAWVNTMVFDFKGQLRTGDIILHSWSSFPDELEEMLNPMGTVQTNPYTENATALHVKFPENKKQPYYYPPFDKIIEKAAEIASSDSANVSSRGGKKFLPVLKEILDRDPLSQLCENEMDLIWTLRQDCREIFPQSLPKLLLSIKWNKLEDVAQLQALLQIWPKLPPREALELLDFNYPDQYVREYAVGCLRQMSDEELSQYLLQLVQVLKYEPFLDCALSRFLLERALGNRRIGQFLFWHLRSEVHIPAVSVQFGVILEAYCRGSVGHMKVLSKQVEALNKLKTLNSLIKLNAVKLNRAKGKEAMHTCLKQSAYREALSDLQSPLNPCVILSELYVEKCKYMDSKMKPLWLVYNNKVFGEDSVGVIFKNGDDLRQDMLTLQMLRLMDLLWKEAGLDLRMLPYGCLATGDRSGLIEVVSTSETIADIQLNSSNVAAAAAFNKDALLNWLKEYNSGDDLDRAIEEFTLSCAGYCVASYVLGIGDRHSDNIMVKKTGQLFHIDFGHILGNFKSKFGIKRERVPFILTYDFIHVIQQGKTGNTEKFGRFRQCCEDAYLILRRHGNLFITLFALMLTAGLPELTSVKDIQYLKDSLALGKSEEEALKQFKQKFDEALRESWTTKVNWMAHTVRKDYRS
PI3Kβ, sequence (P27986 whole entry partner, species assumed): as the sequence (P27986 whole entry partner) above

The IC50 is the midpoint of a concentration-inhibition curve. As to `Cc1nc(N)nc2c1cc(-c1ccc(N)nc1)c(=O)n2C1CCCOC1` (centres unmarked) [listing 1 of 2 here], the IC50 amounted to 2.6 nM against mTOR/GbL/Raptor (mTORC1); 52.1 nM at PI3Kβ; 97.8 nM with MCF-7 cells; 5.5 nM against PI3Kα; 150 nM in the data set on PC-3 cells (PC-3, 48 hr); 15.8 nM in data set [2]. Further, in data set [1], the “Mouse Liver Microsome Oxidation (%)” value is 15.2%.
For `Cc1nc(N)nc2c1cc(-c1ccc(N)nc1)c(=O)n2C1CCCOC1` (centres unmarked) [listing 2 of 2 here], the “Mouse Liver Microsome Oxidation (%)” value in data set [1] came to 6.6%. Further, the IC50 is 151 nM with MCF-7 cells (Homo sapiens, MCF7, 48 h); 297 nM in the data set on PC-3 cells (Homo sapiens, PC-3, 48 h); 25.6 nM in data set [2] (Homo sapiens, PC-3, 3 h).
`Cc1nc(N)nc2c1cc(-c1ccc(N)nc1)c(=O)n2[C@H]1CCCOC1`: the IC50 at mTOR/GbL/Raptor (mTORC1) was 3 nM; against PI3Kβ, 60.8 nM; at PI3Kα, 7.3 nM.
Consider `Cc1nc(N)nc2c1cc(-c1ccc(N)nc1)c(=O)n2C1CCOCC1`, for which the IC50 on mTOR/GbL/Raptor (mTORC1) worked out at 3.2 nM; on PI3Kβ, 19.8 nM; with MCF-7 cells (Homo sapiens, MCF7, 48 h) it was 152 nM; at PI3Kα, 9 nM; in the data set on PC-3 cells (Homo sapiens, PC-3, 48 h) it was 280 nM; in data set [2] (Homo sapiens, PC-3, 3 h) it was 25 nM. For the same compound, in data set [1], the “Mouse Liver Microsome Oxidation (%)” value is on record as −7.8%.
Consider `Cc1nc(N)nc2c1cc(-c1ccc(N)nc1)c(=O)n2C1CCOC1` (centres unmarked) [listing 1 of 2 here], for which, in data set [1], the “Mouse Liver Microsome Oxidation (%)” value worked out at 1.7%. The IC50 was determined as 377 nM in the data set on MCF-7 cells (Homo sapiens, MCF7, 48 h); 401 nM in the data set on PC-3 cells (Homo sapiens, PC-3, 48 h); 36.6 nM in data set [2] (Homo sapiens, PC-3, 3 h).
For `Cc1nc(N)nc2c1cc(-c1ccc(N)nc1)c(=O)n2[C@H]1CCOC1`, the IC50 on mTOR/GbL/Raptor (mTORC1) was determined as 5.5 nM; on PI3Kβ, 16.7 nM; at PI3Kα it was 15.5 nM.
For the compound `Cc1nc(N)nc2c1cc(-c1ccc(N)nc1)c(=O)n2C1CCOC1` (centres unmarked) [listing 2 of 2 here], the IC50 is 2.5 nM against mTOR/GbL/Raptor (mTORC1); 34 nM on PI3Kβ; 217 nM in the data set with MCF-7 cells; < 9.1 nM against PI3Kα; 497 nM in the data set with PC-3 cells (PC-3, 48 hr); 18.5 nM in data set [2]. Besides, the “Mouse Liver Microsome Oxidation (%)” value in data set [1] is listed as −8.2%.
For `Cc1nc(N)nc2c1cc(-c1ccc(N(C)C)nc1)c(=O)n2C1CCCOC1` (centres unmarked) [reference compound] [listing 1 of 2 here], the IC50 on mTOR/GbL/Raptor (mTORC1) is 6.1 nM; on PI3Kβ, 205 nM; with MCF-7 cells, 151 nM; on PI3Kα, 13.5 nM; in the data set on PC-3 cells (PC-3, 48 hr), 741 nM; in data set [2] it was 96.2 nM. The “Mouse Liver Microsome Oxidation (%)” value in data set [1] is recorded as 31.2%.
As to `Cc1nc(N)nc2c1cc(-c1ccc(N(C)C)nc1)c(=O)n2C1CCCOC1` (centres unmarked) [reference compound] [listing 2 of 2 here], the “Mouse Liver Microsome Oxidation (%)” value in data set [1] is 41.3%. Besides, the IC50 in the data set with MCF-7 cells (Homo sapiens, MCF7, 48 h) is 247 nM; with PC-3 cells (Homo sapiens, PC-3, 48 h) it was 1330 nM; in data set [2] (Homo sapiens, PC-3, 3 h), 71.7 nM.
Turning to `Cc1nc(N)nc2c1cc(-c1ccc(N(C)C)nc1)c(=O)n2[C@H]1CCCOC1` [reference compound], the IC50 was 5.8 nM at mTOR/GbL/Raptor (mTORC1), 471 nM at PI3Kβ and 9.2 nM against PI3Kα.
`COc1ccc(-c2cc3c(C)nc(N)nc3n(C3CCCOC3)c2=O)cn1` (centres unmarked) [reference compound]: the IC50 against mTOR/GbL/Raptor (mTORC1) was 6.8 nM; at PI3Kβ, 6.8 nM; in the data set with MCF-7 cells (Homo sapiens, MCF7, 48 h), 218 nM; against PI3Kα, 2.8 nM; in the data set with PC-3 cells (Homo sapiens, PC-3, 48 h), 469 nM; in data set [2] (Homo sapiens, PC-3, 3 h) it was 40.8 nM. The “Mouse Liver Microsome Oxidation (%)” value in data set [1] is 45.6%.
